The record followed here is patent publication US20240173316A1, “Methods and Compositions for Treating Cancer” (Ohio Northern University, priority 2022, published 2024).

Each structure is given as a SMILES string.

Data set [1] concerns the target RGS2-Galpha-q interaction (Homo sapiens (Human), UniProt P41220). Kind of data set: NanoBit RGS/Gα cell-based protein-protein interaction assay, RGS2. The conditions noted are these: for Selectivity: RGS4 IC50/RGS2 IC50; for IC50: inhibition of RGS2-Galpha-q interaction, read-out: RGS2 IC50 μM (95% Cl). As for the experimental part: (§1) The NanoBit cell-based assay was performed as previously described. The NanoBit substrate (NanoGlo Live Cell Reagent) was prepared as a 5× stock, per the manufacture's protocol, and added to the wells at 10 μL per well. Post substrate addition, a baseline signal was established for 30 minutes using a BioTek Synergy 2 plate reader in luminescent mode. Post baseline read 10 μL of vehicle (Hank's Balanced Salt solution+20 mM HEPES) or AlF4 (stock solution: 40 mM NaF, 500 μM AlCl3) was added and luminescence was measured for an additional 30 minutes. Lastly, 4× compound or vehicle (DMSO) was added to the appropriate wells, and the plate was read for an additional hour. Data presented represents the mean of N=3 independent experiments±S.E.M. All data analysis was completed in GraphPad Prism 7 and 8.
(§2) All selected compounds were purchased and tested for their ability to inhibit RGS2-Galpha-q interaction in NanoBit assays. The same assay was also used to test the compounds' ability to inhibit RGS4-Galpha-q interaction as a measure of selectivity. RGS4 was not part of the docking calculations performed here because no structure is available for the human RGS4. It was used in the assays, nonetheless, to test for the validity of our docking approach to selectivity and binding.

The test system of data set [2] is NCI 60 cell panel. Kind of data set: NCI 60 Cell One-Dose Screen. The format is cell-based, human. The settings on record: single high dose 10^−5 M; leukemia, NSCLC, colon, CNS, melanoma, ovarian, renal, prostate, breast. As for the experimental part:
Another study was conducted to measure the cytotoxic effect of the RGS2 inhibitor. The growth reduction feature of direct RGS2 inhibitors was examined within the National Cancer Institute single high dose panel established that the drug was cytotoxic across a variety of cancers. Spanning across 60 standard cancer cell lines, this cytotoxicity assessment measured anti-proliferative activity within the following cancer types, with numerous subtypes below them: leukemia, non-small cell lung cancer, colon cancer, central nervous system cancer, melanoma, ovarian cancer, renal cancer, prostate cancer, and breast cancer.
The NCI 60 Cell One-Dose Screen is a standardized test carried out by National Cancer Institute, where a compound is tested at an initial single high dose (10^−5 M) across the full NCI 60 cell panel. Once a compound is assessed to be effective against a standard threshold number of cell lines, the compound is progresses to a full five-dose screen to determine anti-proliferative capability. This assay is ran relative to parallel studies with a no-drug control and at time zero number of cells.

Data set [3] has as its target RGS4-Galpha-q interaction (Homo sapiens (Human), UniProt P49798). The data set can be described thus: NanoBit RGS/Gα cell-based protein-protein interaction assay, RGS4. The settings on record: for IC50: inhibition of RGS4-Galpha-q interaction, read-out: RGS4 IC50 μM (95% Cl). How it is done:
as §1, §2

Data set [4] relates to LNCaP prostate cancer cell line. The data set can be described thus: Wound healing (scratch) migration assay. The settings on record: 1 μM, more potently at 2 μM and higher. Type of data set: cell-based, human. As for the experimental part: It has previously been shown that RGS2 gene expression in the human prostate cancer cells LnCap were downgraded by infection with small hairpin RNA (shRNA) targeting the RGS2 gene (henceforth “shRGS2”). These shRGS2 LnCap cells expressed lower levels of RGS2 protein compared to the non-infected control, leading to a reduction in RGS2 activity.
Metastatic evaluation was carried out by a wound healing assay. A wound healing assay measures cell migration of individual cells, cell sheets, and clusters from one location to another. A single mechanical laceration was made on a 12-well plate growing a cancer cells monolayer that was grown overnight, and the cells were allowed to regrow across the inclusion over the span of 48 hours. Results were recorded between the knockdown shRGS2 and control in values of the closure % as the wound healing took place at 24 hour and 48 hour time points (FIG. 3). Results for the RGS2 inhibitor treated cells were recorded as pictures taken at 5 separate time points every 24 hours (FIG. 4A-H).

Chain of RGS4-Galpha-q interaction (P49798 whole entry): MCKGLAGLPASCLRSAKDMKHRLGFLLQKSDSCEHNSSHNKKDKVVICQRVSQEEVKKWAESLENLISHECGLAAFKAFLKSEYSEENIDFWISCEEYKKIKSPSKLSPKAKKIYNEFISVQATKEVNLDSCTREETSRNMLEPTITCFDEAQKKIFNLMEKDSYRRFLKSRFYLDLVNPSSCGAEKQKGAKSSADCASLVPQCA
Chain of RGS2-Galpha-q interaction (P41220 whole entry): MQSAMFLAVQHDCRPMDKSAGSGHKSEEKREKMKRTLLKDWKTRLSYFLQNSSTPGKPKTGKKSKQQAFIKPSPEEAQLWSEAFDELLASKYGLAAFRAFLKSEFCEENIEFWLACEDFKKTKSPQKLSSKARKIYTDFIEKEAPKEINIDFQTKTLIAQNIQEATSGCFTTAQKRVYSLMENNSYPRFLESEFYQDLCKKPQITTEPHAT

As for `Nc1nc2c(nc(NCCCN3CCOCC3)n2[C@H]2O[C@@H](CO)[C@H](O)[C@@H]2O)c(=O)[nH]1` [AJ-1], in data set [1], the Selectivity came to 289 and the IC50 worked out at 0.04 µM. Moreover, the “cytotoxic effect across cancer types” value in data set [2] was “cytotoxic effect against all aforementioned cancers except prostate, ovarian, and colon cancer”. Also, the IC50 in data set [3] amounted to 10.1 µM.
In the case of `COc1ccc(Cn2nnnc2[C@H](c2cc3cc(C)ccc3[nH]c2=O)N2CCN(C3CCCCC3)CC2)cc1` [AJ-2], in data set [1], the Selectivity is reported as 13 and the IC50 came to 1.45 µM. The IC50 in data set [3] stood at 18.8 µM.
As for `Cc1onc(C(=O)NNC(=O)Nc2ccc(Cl)cc2)c1C(=O)N1CCN(C(c2ccccc2)c2ccccc2)CC1` [AJ-3], in data set [1], the Selectivity is reported as 4.25 and the IC50 amounted to 4.94 µM. Moreover, in data set [2], the “cytotoxic effect across cancer types” value is given as “strong cytotoxic effect against the full list of cancers”. In data set [3], the IC50 worked out at 21 µM. Moreover, the “migration of LNCaP cells” value in data set [4] was “inhibited the migration ability”.
Regarding `Cc1ccc([C@@H](C(=O)NC2CCCCC2)N(Cc2ccccc2Cl)C(=O)c2ccc(CN3CCOCC3)o2)o1` [AJ-4], in data set [1], the Selectivity was determined as 1.81 and the IC50 turned out to be 13.8 µM. For the same molecule, the “cytotoxic effect across cancer types” value in data set [2] was “strong cytotoxic effect against the full list of cancers”. Also, the IC50 in data set [3] worked out at 25 µM.
In the case of `Cc1cc(C)c2[nH]c(=O)c([C@@H](c3nnnn3Cc3ccc4c(c3)OCO4)N3CCN(C)CC3)cc2c1` [AJ-5], the Selectivity in data set [1] is given as 1.53. In addition, the IC50 came out at 15 µM in data set [1] and 23 µM in data set [3].
For the molecule `Cc1cccc2cc([C@H](c3nnnn3Cc3ccc4c(c3)OCO4)N3CCN(C)CC3)c(=O)[nH]c12` [AJ-6], in data set [1], the Selectivity is recorded as 0.48 and the IC50 was found to be 19.8 µM. Also, in data set [3], the IC50 was ~9.6 µM.
The corresponding values for `Cn1c(=O)c2c(nc(NCc3ccccc3)n2C[C@H](O)CN2CCN(Cc3ccccc3)CC2)n(C)c1=O` [AJ-7] are 0.51, 27.6 µM and 14.1 µM.
Regarding `CCc1ccc2[nH]c(=O)c(C(c3nnnn3Cc3ccc(F)cc3)N3CCN(C4CCCCC4)CC3)cc2c1` (stereo not drawn) [AJ-8], the Selectivity in data set [1] is on record as 0.29. In addition, the IC50 in data set [1] is 33.1 µM; in data set [3], 9.6 µM. Besides, the “cytotoxic effect across cancer types” value in data set [2] is on record as “strong cytotoxic effect against the full list of cancers”.
The corresponding values for `Cc1cc(C)c2[nH]c(=O)c(C(c3nnnn3Cc3ccc(F)cc3)N3CCN(C4CCCCC4)CC3)cc2c1` (stereo not drawn) [AJ-9] are 2.72, 33.5 µM, 91 µM and “strong cytotoxic effect against the full list of cancers”.
On to `COCc1ccc2[nH]c(=O)c(C(c3nnnn3C[C@H]3CCCO3)N3CCN(Cc4ccccc4)CC3)cc2c1` (stereo partly drawn) [AJ-10], for which the IC50 in data set [1] was determined as 78 µM. Further, in data set [2], the “cytotoxic effect across cancer types” value is recorded as “strong cytotoxic effect against the full list of cancers”. For the same molecule, in data set [3] (result in words), the “activity towards RGS4” value was “no apparent activity towards RGS4”.

The term IC50 denotes the concentration that inhibits the measured activity by half.
